{"source": "paper PMC5218480", "about": "(PLoS ONE, 2017)", "test_system": "MV-4-11 cells", "test": "Gene expression microarray analysis (Affymetrix PrimeView) and GSEA", "assay_type": "cell-based, human", "parameters": "RFU PODN (11730768_x_at) / Fold change /veh PODN (11730768_x_at) / RFU LINC00158 (11744669_a_at) / Fold change /veh LINC00158 (11744669_a_at) / RFU DUSP10 (11751237_a_at) / Fold change /veh DUSP10 (11751237_a_at) / RFU ID3 (11757404_x_at) / Fold change /veh ID3 (11757404_x_at) / RFU PLEKHG5 (11737974_s_at) / Fold change /veh PLEKHG5 (11737974_s_at) / RFU LRRC4B (11730491_at) / Fold change /veh LRRC4B (11730491_at) / RFU GIMAP4 (11747438_a_at) / Fold change /veh GIMAP4 (11747438_a_at) / RFU KRT8 (11758183_x_at) / Fold change /veh KRT8 (11758183_x_at) / RFU CNN1 (11734310_a_at) / Fold change /veh CNN1 (11734310_a_at) / RFU VPS37D (11726825_at) / Fold change /veh VPS37D (11726825_at) / RFU C10orf10 (11716522_x_at) / Fold change /veh C10orf10 (11716522_x_at) / RFU KIR2DL2 /// KIR2DL4 /// KIR2DL5A /// KIR2DL5B /// KIR2DS1 /// KIR2DS2 /// KIR2DS3 /// KIR2DS4 /// KIR3DL3 /// KIR3DL3 /// KIR3DS1 (11738374_at) / Fold change /veh KIR2DL2 /// KIR2DL4 /// KIR2DL5A /// KIR2DL5B /// KIR2DS1 /// KIR2DS2 /// KIR2DS3 /// KIR2DS4 /// KIR3DL3 /// KIR3DL3 /// KIR3DS1 (11738374_at) / RFU C1QL1 (11718748_at) / Fold change /veh C1QL1 (11718748_at) / RFU TMPRSS4 (11747572_a_at) / Fold change /veh TMPRSS4 (11747572_a_at) / RFU HAMP (11756126_x_at) / Fold change /veh HAMP (11756126_x_at) / RFU RNFT2 (11725882_a_at) / Fold change /veh RNFT2 (11725882_a_at) / RFU NR4A2 (11747474_a_at) / Fold change /veh NR4A2 (11747474_a_at) / RFU ABCC12 (11746883_a_at) / Fold change /veh ABCC12 (11746883_a_at) / RFU TMEM136 (11760407_x_at) / Fold change /veh TMEM136 (11760407_x_at) / RFU CLDN22 /// WWC2 (11732394_at) / Fold change /veh CLDN22 /// WWC2 (11732394_at) / RFU HLA-DPB1 (11760878_x_at) / Fold change /veh HLA-DPB1 (11760878_x_at) / RFU SPINT1 (11716480_a_at) / Fold change /veh SPINT1 (11716480_a_at) / RFU GAP43 (11754022_s_at) / Fold change /veh GAP43 (11754022_s_at) / RFU A4GNT (11735810_at) / Fold change /veh A4GNT (11735810_at) / RFU PRB3 (11715151_x_at) / Fold change /veh PRB3 (11715151_x_at) / RFU TUBB4B (11761932_at) / Fold change /veh TUBB4B (11761932_at) / RFU CAPN14 (11732068_a_at) / Fold change /veh CAPN14 (11732068_a_at) / RFU TMCC2 (11721928_a_at) / Fold change /veh TMCC2 (11721928_a_at) / RFU IRGQ (11745062_a_at) / Fold change /veh IRGQ (11745062_a_at) / RFU FAM174B (11720279_a_at) / Fold change /veh FAM174B (11720279_a_at) / RFU TMPRSS4 (11748680_a_at) / Fold change /veh TMPRSS4 (11748680_a_at) / RFU FAM212B (11763350_a_at) / Fold change /veh FAM212B (11763350_a_at) / RFU PLEKHG5 (11743358_a_at) / Fold change /veh PLEKHG5 (11743358_a_at) / RFU ZSCAN30 (11745921_a_at) / Fold change /veh ZSCAN30 (11745921_a_at) / RFU CMKLR1 (11741424_a_at) / Fold change /veh CMKLR1 (11741424_a_at) / RFU LOC101060620 /// MAPK8IP1 (11723275_at) / Fold change /veh LOC101060620 /// MAPK8IP1 (11723275_at) / RFU SPTSSB (11747773_x_at) / Fold change /veh SPTSSB (11747773_x_at) / RFU PRSS12 (11739890_at) / Fold change /veh PRSS12 (11739890_at) / RFU BIN1 (11741810_x_at) / Fold change /veh BIN1 (11741810_x_at) / RFU WNT11 (11732464_a_at) / Fold change /veh WNT11 (11732464_a_at) / RFU C10orf10 (11716521_a_at) / Fold change /veh C10orf10 (11716521_a_at) / RFU C5orf56 (11738089_at) / Fold change /veh C5orf56 (11738089_at) / RFU CYB561 (11721691_x_at) / Fold change /veh CYB561 (11721691_x_at) / RFU ANKRD19P (11752326_a_at) / Fold change /veh ANKRD19P (11752326_a_at) / RFU OR2T12 /// OR2T33 /// OR2T8 (11738714_s_at) / Fold change /veh OR2T12 /// OR2T33 /// OR2T8 (11738714_s_at) / RFU VCAN (11748164_a_at) / Fold change /veh VCAN (11748164_a_at) / RFU JSRP1 (11732532_at) / Fold change /veh JSRP1 (11732532_at) / RFU KRTAP10-11 (11738290_x_at) / Fold change /veh KRTAP10-11 (11738290_x_at) / RFU MYO3A (11730013_a_at) / Fold change /veh MYO3A (11730013_a_at) / RFU EBF3 (11725865_a_at) / Fold change /veh EBF3 (11725865_a_at) / RFU CAMK2N1 (11719241_x_at) / Fold change /veh CAMK2N1 (11719241_x_at) / RFU C5orf56 (11738088_a_at) / Fold change /veh C5orf56 (11738088_a_at) / RFU OLFML3 (11715873_a_at) / Fold change /veh OLFML3 (11715873_a_at) / RFU LOC100653217 /// NTM (11731650_a_at) / Fold change /veh LOC100653217 /// NTM (11731650_a_at) / RFU MAPK11 (11762145_a_at) / Fold change /veh MAPK11 (11762145_a_at) / RFU FIZ1 (11724087_x_at) / Fold change /veh FIZ1 (11724087_x_at) / RFU OASL (11726364_x_at) / Fold change /veh OASL (11726364_x_at) / RFU SOX15 (11748057_x_at) / Fold change /veh SOX15 (11748057_x_at) / RFU CD79A (11719716_a_at) / Fold change /veh CD79A (11719716_a_at) / RFU HIST1H1D (11736915_at) / Fold change /veh HIST1H1D (11736915_at) / RFU CASKIN2 (11723855_a_at) / Fold change /veh CASKIN2 (11723855_a_at) / RFU LOC730098 (11760151_x_at) / Fold change /veh LOC730098 (11760151_x_at) / RFU OR4N2 (11742367_at) / Fold change /veh OR4N2 (11742367_at) / RFU PRRT2 (11749266_a_at) / Fold change /veh PRRT2 (11749266_a_at) / RFU SNX32 (11753110_a_at) / Fold change /veh SNX32 (11753110_a_at) / RFU CDHR5 (11726645_a_at) / Fold change /veh CDHR5 (11726645_a_at) / RFU RCAN1 (11760418_a_at) / Fold change /veh RCAN1 (11760418_a_at) / RFU FAM167A (11723789_a_at) / Fold change /veh FAM167A (11723789_a_at) / RFU FAM26E (11764081_at) / Fold change /veh FAM26E (11764081_at) / RFU ISYNA1 (11749810_s_at) / Fold change /veh ISYNA1 (11749810_s_at) / RFU ACY1 (11761880_at) / Fold change /veh ACY1 (11761880_at) / RFU 11764098_at / Fold change /veh 11764098_at / RFU SAMD14 (11745864_x_at) / Fold change /veh SAMD14 (11745864_x_at) / RFU NPB (11741838_a_at) / Fold change /veh NPB (11741838_a_at) / RFU TMPRSS6 (11731388_a_at) / Fold change /veh TMPRSS6 (11731388_a_at) / RFU KRTAP10-2 (11738614_at) / Fold change /veh KRTAP10-2 (11738614_at) / RFU ARHGAP8 /// PRR5-ARHGAP8 (11727945_x_at) / Fold change /veh ARHGAP8 /// PRR5-ARHGAP8 (11727945_x_at) / RFU KRTAP5-7 /// NADSYN1 (11734609_at) / Fold change /veh KRTAP5-7 /// NADSYN1 (11734609_at) / RFU RASL12 (11751679_a_at) / Fold change /veh RASL12 (11751679_a_at) / RFU CDKN2B (11736163_a_at) / Fold change /veh CDKN2B (11736163_a_at) / RFU PRF1 (11729649_at) / Fold change /veh PRF1 (11729649_at) / RFU, ZNF638 /// ZNF638-IT1 / Fold change vs veh, ZNF638 /// ZNF638-IT1 / RFU, PANK3 / Fold change vs veh, PANK3 / RFU, SH3YL1 / Fold change vs veh, SH3YL1 / RFU, ZEB2 / Fold change vs veh, ZEB2 / RFU, NRIP1 / Fold change vs veh, NRIP1 / RFU, PTTG1IP / Fold change vs veh, PTTG1IP / RFU, CAPN2 / Fold change vs veh, CAPN2 / RFU, MED14 / Fold change vs veh, MED14 / RFU, SNORA58 / Fold change vs veh, SNORA58 / RFU, C1orf63 / Fold change vs veh, C1orf63 / RFU, LRRFIP1 / Fold change vs veh, LRRFIP1 / RFU, NDUFAF7 / Fold change vs veh, NDUFAF7 / RFU, SLC12A2 / Fold change vs veh, SLC12A2 / RFU, IBTK / Fold change vs veh, IBTK / RFU, ESF1 / Fold change vs veh, ESF1 / Fold change vs veh, TMEM50B / RFU, TAOK1 / Fold change vs veh, TAOK1 / RFU, ACBD3 / Fold change vs veh, ACBD3 / RFU, TMA16 / Fold change vs veh, TMA16 / RFU, RWDD3 / Fold change vs veh, RWDD3 / RFU, BCAT1 / Fold change vs veh, BCAT1 / RFU, EDEM3 / Fold change vs veh, EDEM3 / RFU, TMEM33 / Fold change vs veh, TMEM33 / RFU, WDR75 / Fold change vs veh, WDR75 / RFU, AHCTF1 / Fold change vs veh, AHCTF1 / RFU, TFRC / Fold change vs veh, TFRC / RFU, ZDHHC17 / Fold change vs veh, ZDHHC17 / RFU, NOM1 / Fold change vs veh, NOM1 / RFU, ARL8B / Fold change vs veh, ARL8B / RFU, ZBTB11 / Fold change vs veh, ZBTB11 / RFU, TAMM41 / Fold change vs veh, TAMM41 / RFU, KIAA1704 /// LOC100996395 / Fold change vs veh, KIAA1704 /// LOC100996395 / RFU, ING1 / Fold change vs veh, ING1 / RFU, TRMT61B / Fold change vs veh, TRMT61B / RFU, FUBP3 / Fold change vs veh, FUBP3 / RFU, TP53 / Fold change vs veh, TP53 / RFU, TNKS2 / Fold change vs veh, TNKS2 / RFU, ZFP14 / Fold change vs veh, ZFP14 / RFU, ACTR2 / Fold change vs veh, ACTR2 / RFU, PPP3R1 / Fold change vs veh, PPP3R1 / RFU, PIK3R1 / Fold change vs veh, PIK3R1 / RFU, HNRNPA1 / Fold change vs veh, HNRNPA1 / RFU, RNF170 / Fold change vs veh, RNF170 / RFU, ZNF28 / Fold change vs veh, ZNF28 / RFU, RNGTT / Fold change vs veh, RNGTT / RFU, OGT / Fold change vs veh, OGT / RFU, BRD1 / Fold change vs veh, BRD1 / RFU, MARS / Fold change vs veh, MARS / RFU, ZNF655 / Fold change vs veh, ZNF655 / RFU, FAHD1 / Fold change vs veh, FAHD1 / RFU, BDP1 / Fold change vs veh, BDP1 / RFU, LRRCC1 / Fold change vs veh, LRRCC1 / RFU, ARID1A / Fold change vs veh, ARID1A / RFU, ZNF146 / Fold change vs veh, ZNF146 / RFU, ZNF330 / Fold change vs veh, ZNF330 / RFU, GPN3 / Fold change vs veh, GPN3 / RFU, C9orf123 / Fold change vs veh, C9orf123 / RFU, N4BP2L2 / Fold change vs veh, N4BP2L2 / RFU, ARFIP1 / Fold change vs veh, ARFIP1 / RFU, FAM179B / Fold change vs veh, FAM179B / RFU, BCL10 / Fold change vs veh, BCL10 / RFU, UHRF1BP1L / Fold change vs veh, UHRF1BP1L / RFU, BET1 / Fold change vs veh, BET1 / RFU, CNOT2 / Fold change vs veh, CNOT2 / RFU, ZNF268 / Fold change vs veh, ZNF268 / Fold change vs veh, ZNF507 / RFU, DGCR2 / Fold change vs veh, DGCR2 / RFU, WDSUB1 / Fold change vs veh, WDSUB1 / Fold change vs veh, HSP90B1 /// MIR3652 / RFU, ADSS / Fold change vs veh, ADSS / RFU, GK / Fold change vs veh, GK / RFU, ZNF148 / Fold change vs veh, ZNF148 / RFU, TAF9 / Fold change vs veh, TAF9 / RFU, SLC1A5 / Fold change vs veh, SLC1A5 / RFU, SLMO2 / Fold change vs veh, SLMO2 / RFU, ABCC4 / Fold change vs veh, ABCC4 / RFU, LOC101060439 /// RAP1B / Fold change vs veh, LOC101060439 /// RAP1B / RFU, RFX7 / Fold change vs veh, RFX7 / RFU, GTPBP10 / Fold change vs veh, GTPBP10 / RFU, CNEP1R1 / Fold change vs veh, CNEP1R1 / RFU, BIVM-ERCC5 /// ERCC5 / Fold change vs veh, BIVM-ERCC5 /// ERCC5 / RFU, ILF3 / Fold change vs veh, ILF3 / RFU 11762660_at / Fold change /veh 11762660_at / RFU VCAN (11757783_s_at) / Fold change /veh VCAN (11757783_s_at) / RFU DDX43 (11728927_at) / Fold change /veh DDX43 (11728927_at) / RFU KRT8 (11758188_x_at) / Fold change /veh KRT8 (11758188_x_at) / RFU NKD1 (11759106_at) / Fold change /veh NKD1 (11759106_at) / RFU SRD5A1 (11742802_a_at) / Fold change /veh SRD5A1 (11742802_a_at) / RFU TPSAB1 /// TPSB2 (11721975_s_at) / Fold change /veh TPSAB1 /// TPSB2 (11721975_s_at) / RFU GSTM3 (11746129_a_at) / Fold change /veh GSTM3 (11746129_a_at) / RFU IL23R (11737362_x_at) / Fold change /veh IL23R (11737362_x_at) / RFU TMEM51 (11727254_a_at) / Fold change /veh TMEM51 (11727254_a_at) / RFU PIWIL2 (11732686_x_at) / Fold change /veh PIWIL2 (11732686_x_at) / RFU ORM1 (11744905_x_at) / Fold change /veh ORM1 (11744905_x_at) / RFU CCDC152 (11743942_at) / Fold change /veh CCDC152 (11743942_at) / RFU ECM1 (11717891_a_at) / Fold change /veh ECM1 (11717891_a_at) / RFU IL23R (11748794_a_at) / Fold change /veh IL23R (11748794_a_at) / RFU TNFAIP8L3 (11732012_x_at) / Fold change /veh TNFAIP8L3 (11732012_x_at) / RFU MBOAT4 (11741988_at) / Fold change /veh MBOAT4 (11741988_at) / RFU 11764193_at / Fold change /veh 11764193_at / RFU TMEM53 (11763286_at) / Fold change /veh TMEM53 (11763286_at) / RFU MAGEB2 (11727129_at) / Fold change /veh MAGEB2 (11727129_at) / RFU TMEM200A (11744735_a_at) / Fold change /veh TMEM200A (11744735_a_at) / RFU CCDC152 (11751479_a_at) / Fold change /veh CCDC152 (11751479_a_at) / RFU FAM211A (11726209_a_at) / Fold change /veh FAM211A (11726209_a_at) / RFU RGS16 (11746705_a_at) / Fold change /veh RGS16 (11746705_a_at) / RFU VCAN (11755009_s_at) / Fold change /veh VCAN (11755009_s_at) / RFU RHOB (11743442_s_at) / Fold change /veh RHOB (11743442_s_at) / RFU RGS16 (11720943_a_at) / Fold change /veh RGS16 (11720943_a_at) / RFU RGS16 (11720944_at) / Fold change /veh RGS16 (11720944_at) / RFU, VPS4B / Fold change vs veh, VPS4B / RFU, CREB1 / Fold change vs veh, CREB1 / RFU, DNAJC13 / Fold change vs veh, DNAJC13 / RFU, GNAQ / Fold change vs veh, GNAQ / RFU, CDK5R1 / Fold change vs veh, CDK5R1 / RFU, ZRANB3 / Fold change vs veh, ZRANB3 / RFU, CUL4A / Fold change vs veh, CUL4A / RFU, CCNY / Fold change vs veh, CCNY / RFU, UFL1 / Fold change vs veh, UFL1 / RFU, COG3 / Fold change vs veh, COG3 / RFU, DIAPH2 / Fold change vs veh, DIAPH2 / RFU, SKA2 / Fold change vs veh, SKA2 / RFU, AFF3 / Fold change vs veh, AFF3 / RFU, LMF1 / Fold change vs veh, LMF1 / RFU, IPO11 / Fold change vs veh, IPO11 / RFU, DFFB / Fold change vs veh, DFFB / RFU, FOXP1 / Fold change vs veh, FOXP1 / RFU, CARD8 / Fold change vs veh, CARD8 / RFU, STRN3 / Fold change vs veh, STRN3 / RFU, ADK / Fold change vs veh, ADK / RFU, RASSF2 / Fold change vs veh, RASSF2 / RFU, WIPF1 / Fold change vs veh, WIPF1 / RFU, LARP1B / Fold change vs veh, LARP1B / RFU, RASA1 / Fold change vs veh, RASA1 / RFU, RB1 / Fold change vs veh, RB1 / RFU, PPFIA1 / Fold change vs veh, PPFIA1 / RFU, MAT2A / Fold change vs veh, MAT2A / RFU, CCT5 / Fold change vs veh, CCT5 / RFU, WDR92 / Fold change vs veh, WDR92 / RFU, CUX1 / Fold change vs veh, CUX1 / RFU, TTC7A / Fold change vs veh, TTC7A / RFU, TMEM135 / Fold change vs veh, TMEM135 / RFU, DEPTOR / Fold change vs veh, DEPTOR / RFU, CPM / Fold change vs veh, CPM / RFU, DNAJB6 / Fold change vs veh, DNAJB6 / RFU, CACNA2D3 / Fold change vs veh, CACNA2D3 / RFU, DTX4 / Fold change vs veh, DTX4 / RFU, TFCP2 / Fold change vs veh, TFCP2 / RFU, GMCL1 /// GMCL1P1 / Fold change vs veh, GMCL1 /// GMCL1P1 / RFU, AEBP2 / Fold change vs veh, AEBP2 / RFU, SNHG1 /// SNORD22 /// SNORD25 /// SNORD26 /// SNORD27 /// SNORD28 /// SNORD29 /// SNORD31 / Fold change vs veh, SNHG1 /// SNORD22 /// SNORD25 /// SNORD26 /// SNORD27 /// SNORD28 /// SNORD29 /// SNORD31 / Fold change (Aza/veh), C12orf56 (ProbeSet 11735607_a_at) / Fold change (ACY-1035/veh), C12orf56 (ProbeSet 11735607_a_at) / Fold change (Aza/veh), FGFR1OP (ProbeSet 11751329_s_at) / Fold change (ACY-1035/veh), FGFR1OP (ProbeSet 11751329_s_at) / Fold change (Aza/veh), VPS36 (ProbeSet 11739960_a_at) / Fold change (ACY-1035/veh), VPS36 (ProbeSet 11739960_a_at) / RFU SYPL1 (11715823_x_at) / Fold change /veh SYPL1 (11715823_x_at) / RFU IGFBP7 (11715501_s_at) / Fold change /veh IGFBP7 (11715501_s_at) / RFU REEP3 (11722064_at) / Fold change /veh REEP3 (11722064_at) / RFU IGLL1 (11728026_x_at) / Fold change /veh IGLL1 (11728026_x_at): dose or concentration left out as unconfirmed", "conditions": "MV-4-11 cells, 48 hours", "data": [{"smiles": "Nc1ncn([C@@H]2O[C@H](CO)[C@@H](O)[C@H]2O)c(=O)n1", "note": "[azacitidine]", "values": [{"measurement": "RFU SAMD14 (11745864_x_at)", "result": 17.52, "unit": "RFU"}]}]}
